Reference: patent publication US11548875B2, “Inhibitor compounds for male contraception” (University of Washington, priority 2018, dated 2023)
Where two headings read alike, the source gives them in different places.

Assays:
ALDH1A1 [1] = target: T1, ALDH1A1 (Homo sapiens, UniProt P00352); experiment: Cell-based enzyme assay, retinoic acid production in ALDH1A1/H1299 cells
T1 sequence (P00352 1-501): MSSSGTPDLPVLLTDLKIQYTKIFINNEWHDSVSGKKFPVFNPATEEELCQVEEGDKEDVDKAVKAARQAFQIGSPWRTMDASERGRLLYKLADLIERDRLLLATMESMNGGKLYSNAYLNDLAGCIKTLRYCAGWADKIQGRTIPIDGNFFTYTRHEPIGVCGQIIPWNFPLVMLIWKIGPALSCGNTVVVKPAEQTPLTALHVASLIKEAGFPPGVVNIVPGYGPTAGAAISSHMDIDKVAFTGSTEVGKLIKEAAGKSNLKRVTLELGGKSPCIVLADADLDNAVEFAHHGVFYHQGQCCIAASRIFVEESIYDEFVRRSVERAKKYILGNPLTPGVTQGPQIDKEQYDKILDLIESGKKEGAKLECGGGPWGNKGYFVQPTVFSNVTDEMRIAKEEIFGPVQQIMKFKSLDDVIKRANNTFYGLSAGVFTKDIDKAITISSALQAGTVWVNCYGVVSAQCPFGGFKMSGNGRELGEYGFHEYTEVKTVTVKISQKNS
Procedure: (§1) ALDH1A1 cDNA clone was purchased transfection-ready, and ALDH1A2 full-length cDNA was subcloned into pcDNA3, a mammalian expression vector. ALDH1A1 and ALDH1A2 were transfected into H1299 cells (CRL5803, ATCC) using Lipofectamine 3000 (Invitrogen) following the manufacturer's instructions. Stably transfected cells were selected with G418 (1.2 mg/ml) and referred to as ALDH1A1/H1299 and ALDH1A2/H1299. For the cell-based enzyme assays,
(§2) H1299 cells were routinely grown in RPMI-1640 (ATCC) supplemented with 10% fetal bovine serum (Atlanta Biologicals) in a 37 C, 5% CO2, moisture-saturated atmosphere. H1299, ALDH1A1/H1299 and ALDH1A2/H1299 cells were seeded into 12-well plates (1×10^5 cells/well) and grown for 2 days to confluence. Confluent cells were treated for 20 hours in the above media excluding serum with 2 μM all-trans-retinal, and varying concentrations of inhibitors. Serum-free media was used for the treatment period to avoid retinoic acid in serum. Retinoic acid concentrations were determined from cells and media, and specificity of inhibitors was determined by comparing retinoic acid levels in the presence and absence of the inhibitors in ALDH1A1- vs. ALDH1A2-expressing cells.

ALDH1A2 [2] = target: T2, ALDH1A2 (Homo sapiens, UniProt O94788); experiment: Cell-based enzyme assay, retinoic acid production in ALDH1A2/H1299 cells
T2 sequence (O94788 1-518): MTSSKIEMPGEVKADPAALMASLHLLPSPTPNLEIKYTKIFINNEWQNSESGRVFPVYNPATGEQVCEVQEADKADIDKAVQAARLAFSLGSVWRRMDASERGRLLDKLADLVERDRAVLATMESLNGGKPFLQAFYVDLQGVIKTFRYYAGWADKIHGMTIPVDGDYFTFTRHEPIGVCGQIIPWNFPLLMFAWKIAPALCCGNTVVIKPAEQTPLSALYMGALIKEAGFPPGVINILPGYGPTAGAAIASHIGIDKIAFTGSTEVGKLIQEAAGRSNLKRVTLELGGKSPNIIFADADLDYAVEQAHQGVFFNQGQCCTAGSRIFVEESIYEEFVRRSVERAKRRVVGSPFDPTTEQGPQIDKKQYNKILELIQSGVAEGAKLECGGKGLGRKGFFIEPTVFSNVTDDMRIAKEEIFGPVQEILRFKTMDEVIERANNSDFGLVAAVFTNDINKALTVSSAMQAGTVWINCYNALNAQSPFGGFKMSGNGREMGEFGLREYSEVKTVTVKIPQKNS
Procedure: as §1, §2

ALDH1A2 [3] = target: T2, ALDH1A2; experiment: Inhibitor screening using purified enzymes: ALDH1A2 activity, retinoic acid production by HPLC (5 uM initial screen, then IC50); assay type: biochemical; parameters: histidine-tag (C); made in house; host or cells: bacterial expression (pET28 vector, IPTG induction); conditions: purified enzyme
Text: (§3) ALDHs were cloned into bacterial expression vector for in vitro enzyme assays and into mammalian expression vectors for cell-based enzyme assays. Human ALDH1A1 cDNA and human ALDH2 cDNA were purchased from OriGene (SC321535) and Open Biosystems (MHS4771-99611182), respectively. and human ALDH1A2 cDNA was cloned from human testis RNA using RT-PCR (Population Division of the Department of Economic and Social Affairs of the United Nations Secretariat. World Population prospects: the 2008 revision. Available at http://www.un.org/esa/population/ (Retrieved Sep. 30, 2011)). For bacterial expression, an open reading frame of ALDH1A1 and ALDH2 were subcloned into the pETite vector (Lucigen) with a 5′ histidine-tag and that of ALDH1A2 into a pET28 vector (Novagen) with a 3′ histidine-tag. Correct frame and sequences were verified through DNA sequencing (UW DNA sequencing facility). ALDHs were induced with 1 mM IPTG and purified using His.Bind resin (Novagen, San Diego, Calif.) and stored in a buffer containing 20 mM Hepes (pH 8), 150 mM KCl and 1 mM EDTA as previously described (Fierce, Y., de Morais Vieira, M., Piantedosi, R., Wyss, A., Blaner, W. S., and Paik, J. (2008) In vitro and in vivo characterization of retinoid synthesis from beta-carotene. Archives of biochemistry and biophysics 472, 126-138).
(§4) ALDH1A1 and ALDH1A2 activity was determined as previously reported (Beedle M T, Stevison F, Zhong G, Topping T, Hogarth C, Isoherranen N, Griswold M D. Sources of All-Trans Retinal Oxidation Independent of the Aldehyde Dehydrogenase 1A Isozymes Exist in the Postnatal Testis. Biol Reprod. 2018 Sep. 21. doi: 10.1093/biolre/ioy200). Briefly, purified enzymes were incubated in a buffer containing 10 mM HEPES buffer (pH 8.0), 150 mM potassium chloride and 2 mM EDTA with 2 mM NAD. Retinoic acid production was determined using HPLC as previously reported (Amory J K, Muller C H, Shimshoni A J, Isoherranen N, Paik J, Moreb J S, Amory D W, Evanoff R, Goldstein A S, Griswold M D. Suppression of spermatogenesis by bisdichloroacetyldiamines is mediated by inhibition of testicular retinoic acid biosynthesis. Journal of Andrology 2011; 32(1):111-119). Inhibitors were diluted in DMSO and added to the reactions. […] For initial screening of inhibitors for ALDH1A2, 1 μg ALDH1A2, 5 μM all-trans-retinal and 5 μM inhibitors were incubated for 15 min at 37° C. […] For this purpose, 0.5 μg ALDH1A2 and […] were incubated for 5 minutes at 37° C. with varying concentrations of inhibitors. To determine specificity toward ALDH1A2, the IC50 for […]

ALDH1A1 [4] = target: T1, ALDH1A1; experiment: Inhibitor screening using purified enzymes: ALDH1A1 activity, retinoic acid production by HPLC; assay type: biochemical; conditions: purified enzyme
Text: as §3, §4

ALDH2 = target: T3, ALDH2 (Homo sapiens, UniProt P05091); experiment: Purified ALDH2 assay with propanal, NADH fluorescence; assay type: biochemical; conditions: purified enzyme
T3 construct: histidine-tag (N); made in house; host or cells: bacterial expression (pETite vector, IPTG induction)
T3 sequence (P05091 18-517): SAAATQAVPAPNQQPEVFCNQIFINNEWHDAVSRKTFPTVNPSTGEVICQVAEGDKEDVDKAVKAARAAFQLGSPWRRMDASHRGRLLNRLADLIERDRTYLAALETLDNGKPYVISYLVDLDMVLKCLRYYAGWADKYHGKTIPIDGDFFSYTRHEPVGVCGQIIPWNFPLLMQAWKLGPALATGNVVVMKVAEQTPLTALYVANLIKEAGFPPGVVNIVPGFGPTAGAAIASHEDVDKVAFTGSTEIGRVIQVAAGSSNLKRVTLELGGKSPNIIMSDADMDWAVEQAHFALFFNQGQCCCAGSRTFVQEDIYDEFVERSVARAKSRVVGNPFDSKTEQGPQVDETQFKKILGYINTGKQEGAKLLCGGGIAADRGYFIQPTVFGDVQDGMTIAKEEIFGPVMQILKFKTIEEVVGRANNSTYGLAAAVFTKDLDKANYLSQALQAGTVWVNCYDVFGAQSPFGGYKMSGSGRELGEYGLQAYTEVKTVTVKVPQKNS
Text: as §3, with “126-138). […]” for “126-138).”
For this, 2 μg purified ALDH2, 20 μM propanal and varying concentrations of inhibitors were incubated at room temperature. Enzyme activity was determined by measuring fluorescence of NADH (Ex, 350 nm/Em, 460 nm) using a Victor3 plate reader (PerkinElmer), and initial velocity was calculated from two consecutive readings over 1 minute.

Row | EC50 (ALDH1A1 [1]; cell-based) [µM] | EC50 (ALDH1A2 [2]; cell-based) [µM] | IC50 (ALDH1A2 [3]) [µM] | EC50 (ALDH1A1 [1]) [µM] | EC50 (ALDH1A2 [2]) [µM] | IC50 (ALDH1A1 [4]) [µM] | IC50 (ALDH2) [µM] | Compound
1 | 5.63 | 0.045 | 0.179 | – | – | – | – | COC(=O)c1ccc(-n2cc(C(=O)Nc3cccc(F)c3)c(-c3ccc(S(C)(=O)=O)cc3)n2)cc1 [Compound 273, Methyl 4-{4-[(3-fluorophenyl)carbamoyl]-3-[4-(methylsulfonyl)phenyl]-1H-pyrazol-1-yl} benzoate]
2 | – | – | 18.5 | 0.059 | > 5 | – | – | Cn1cccc1C(=O)N1CCN(c2ccc(NC(=O)C(Cl)Cl)c(N3CCCCCC3)c2)CC1 [Compound 381, {4-[4-Dichloroacetamido-3-(azepan-1-yl)phenyl]piperazin-1-yl}(1-methyl-1H-pyrrol-2-yl)methanone]
3 | – | – | 0.015 | – | – | 2 | – | O=C(Nc1cccc(F)c1)c1cn(-c2ccccc2)nc1-c1ccc(CNC(=O)C(Cl)Cl)cc1 [Compound 8-64, 3-(4-{[(Dichloroacetyl)amino]methyl}phenyl)-N-(3-fluorophenyl)-1-phenyl-1H-pyrazole-4-carboxamide]
4 | 0.723 | 0.317 | – | – | – | – | > 5 | CCOC(=O)c1cn(-c2ccccc2)nc1-c1ccc(S(C)(=O)=O)cc1 [Compound 232, Ethyl 3-[4-(methylsulfonyl)phenyl]-1-phenyl-1H-pyrazole-4-carboxylate]
5 | > 20 | 0.3 | > 5 | – | – | – | – | CS(=O)(=O)c1ccc(-c2nn(-c3ccc(C=O)cc3)cc2C(=O)Nc2cccc(F)c2)cc1 [Compound 280, 1-(4-Formylphenyl)-3-[4-(methylsulfonyl)phenyl]-N-(3-fluorophenyl)-1H-pyrazole-4-carboxamide]
6 | – | – | 0.72 | – | – | 3.9 | – | O=C(Nc1cccc(F)c1)c1cn(-c2ccccc2)nc1-c1ccc(CBr)cc1 [Compound 8-44, 3-[4-(Bromomethyl)phenyl]-N-(3-fluorophenyl)-1-phenyl-1H-pyrazole-4-carboxamide]
7 | 2.23 | 0.008 | 0.131 | – | – | – | – | Methyl 4-{4-[(2-hydroxyphenyl)carbamoyl]-[4-(methylsulfonyl)phenyl]-1H-pyrazol-1-yl} benzoate [Compound 274]
8 | 46 | 0.011 | 0.112 | – | – | – | – | CS(=O)(=O)c1ccc(-c2nn(-c3ccc(F)cc3)cc2C(=O)Nc2cccc(C(F)(F)F)c2)cc1 [Compound 256, N-(3-Trifluoromethylphenyl)-1-(4-fluorophenyl)-3-[4-(methylsulfonyl)phenyl]-1H-pyrazole-4-carboxamide]
9 | 1.93 | 0.04 | – | – | – | – | – | CS(=O)(=O)c1ccc(-c2nn(-c3ccc(C(=O)NO)cc3)cc2C(=O)Nc2cccc(F)c2)cc1 [Compound 284, 1-(4-Hydroxycarbomylphenyl)-3-[4-(methylsulfonyl)phenyl]-N-(3-fluorophenyl)-1H-pyrazole-4-carboxamide]
10 | 9.62 | 0.15 | – | – | – | – | – | O=C(O)c1ccc(-n2cc(C(=O)Nc3cccc(F)c3)c(-c3ccc(O)cc3)n2)cc1 [Compound 306, 4-{4-[(3-Fluorophenyl)carbamoyl]-3-(4-hydroxyphenyl)-1H-pyrazol-1-yl}benzoic acid]

Row | Compound | EC50 (ALDH1A1 [1]; cell-based) [µM] | EC50 (ALDH1A2 [2]; cell-based) [µM] | IC50 (ALDH1A2 [3]) [µM] | EC50 (ALDH1A1 [1]) [µM] | EC50 (ALDH1A2 [2]) [µM] | IC50 (ALDH1A1 [4]) [µM] | IC50 (ALDH2) [µM]
11 | 1-[4-(4-Nitrophenyl)-3-(azocan-1-yl)]piperazin-1-yl](1-methyl-1H-pyrrol-2-yl)methanone [Compound N104] | – | – | 6.5 | – | – | 0.141 | –
12 | 2-(Acetyloxy)phenyl 1-(4-fluorophenyl)-3-[4-(methylsulfonyl)phenyl]-1H-pyrazole-4-carboxylate [Compound 293] | > 20 | 0.07 | – | – | – | – | –
